Measured values reported in PubChem BioAssay (NCI).
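GI50 is the concentration that inhibits growth by half. TGI marks complete inhibition of growth.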

Assays:
Experiment in all cases: DTP human tumour cell line panel, 384-well format
A498 renal = tested on: A498 renal
DU-145 prostate = tested on: DU-145 prostate
NCI-H522 lung = tested on: NCI-H522 lung
MDA-MB-468 breast = tested on: MDA-MB-468 breast
SK-MEL-28 melanoma = tested on: SK-MEL-28 melanoma
TK-10 renal = tested on: TK-10 renal
OVCAR-5 ovarian = tested on: OVCAR-5 ovarian
MALME-3M melanoma = tested on: MALME-3M melanoma
NCI-H226 lung = tested on: NCI-H226 lung
OVCAR-3 ovarian = tested on: OVCAR-3 ovarian
A549 NSCLC = tested on: A549 NSCLC
HCC-2998 colon = tested on: HCC-2998 colon
MDA-MB-435 melanoma = tested on: MDA-MB-435 melanoma
SF-539 CNS = tested on: SF-539 CNS
SW-620 colon = tested on: SW-620 colon
NCI/ADR-RES ovarian = tested on: NCI/ADR-RES ovarian
HT29 colon = tested on: HT29 colon
K-562 leukemia = tested on: K-562 leukemia
HS 578T breast = tested on: HS 578T breast
SF-268 CNS = tested on: SF-268 CNS
SF-295 CNS = tested on: SF-295 CNS
COLO 205 colon = tested on: COLO 205 colon
KM12 colon = tested on: KM12 colon
CAKI-1 renal = tested on: CAKI-1 renal
SNB-19 CNS = tested on: SNB-19 CNS
SNB-75 CNS = tested on: SNB-75 CNS
RXF 393 renal = tested on: RXF 393 renal
UO-31 renal = tested on: UO-31 renal
EKVX NSCLC = tested on: EKVX NSCLC
NCI-H23 lung = tested on: NCI-H23 lung
T-47D breast = tested on: T-47D breast
UACC-257 melanoma = tested on: UACC-257 melanoma
HOP-62 NSCLC = tested on: HOP-62 NSCLC
ACHN renal = tested on: ACHN renal
BT-549 breast = tested on: BT-549 breast
HCT-15 colon = tested on: HCT-15 colon
CCRF-CEM leukemia = tested on: CCRF-CEM leukemia
RPMI-8226 leukemia = tested on: RPMI-8226 leukemia
OVCAR-8 ovarian = tested on: OVCAR-8 ovarian
NCI-H322M lung = tested on: NCI-H322M lung
SN12C renal = tested on: SN12C renal
U251 glioblastoma = tested on: U251 glioblastoma
NCI-H460 NSCLC = tested on: NCI-H460 NSCLC
786-0 renal = tested on: 786-0 renal
SK-MEL-5 melanoma = tested on: SK-MEL-5 melanoma
M14 melanoma = tested on: M14 melanoma
PC-3 prostate = tested on: PC-3 prostate
HL-60(TB) leukemia = tested on: HL-60(TB) leukemia
SK-OV-3 ovarian = tested on: SK-OV-3 ovarian
UACC-62 melanoma = tested on: UACC-62 melanoma
OVCAR-4 ovarian = tested on: OVCAR-4 ovarian
LOX IMVI melanoma = tested on: LOX IMVI melanoma
IGROV1 ovarian = tested on: IGROV1 ovarian
MCF7 breast = tested on: MCF7 breast

CCS(=O)(=O)c1cccc(-c2cc(C(=O)NC3CCN(C)CC3)c(C)c3[nH]c4ncc(C)cc4c23)c1
GI50 (A498 renal): 1400 nM
TGI (A498 renal): 5500 nM
GI50 (DU-145 prostate): 343 nM
TGI (DU-145 prostate): 4340 nM
GI50 (NCI-H522 lung): 19.4 nM
TGI (NCI-H522 lung): 126 nM
GI50 (MDA-MB-468 breast): 17.9 nM
TGI (MDA-MB-468 breast): 88.6 nM
GI50 (SK-MEL-28 melanoma): 279 nM
TGI (SK-MEL-28 melanoma): 1300 nM
GI50 (TK-10 renal): 1740 nM
TGI (TK-10 renal): 5520 nM
GI50 (OVCAR-5 ovarian): 185 nM
TGI (OVCAR-5 ovarian): 827 nM
GI50 (MALME-3M melanoma): 240 nM
TGI (MALME-3M melanoma): 1460 nM
GI50 (NCI-H226 lung): 39.2 nM
TGI (NCI-H226 lung): 441 nM
GI50 (OVCAR-3 ovarian): 103 nM
TGI (OVCAR-3 ovarian): 298 nM
GI50 (A549 NSCLC): 58 nM
TGI (A549 NSCLC): 1200 nM
GI50 (HCC-2998 colon): 168 nM
TGI (HCC-2998 colon): 1240 nM
GI50 (MDA-MB-435 melanoma): 366 nM
TGI (MDA-MB-435 melanoma): 1900 nM
GI50 (SF-539 CNS): 59 nM
TGI (SF-539 CNS): 233 nM
GI50 (SW-620 colon): 181 nM
TGI (SW-620 colon): 1250 nM
GI50 (NCI/ADR-RES ovarian): > 100000 nM
TGI (NCI/ADR-RES ovarian): > 100000 nM
GI50 (HT29 colon): 215 nM
TGI (HT29 colon): 10500 nM
GI50 (K-562 leukemia): 32.2 nM
TGI (K-562 leukemia): 761 nM
GI50 (HS 578T breast): 58.1 nM
TGI (HS 578T breast): 216 nM
GI50 (SF-268 CNS): 17.8 nM
TGI (SF-268 CNS): 91.1 nM
GI50 (SF-295 CNS): 399 nM
TGI (SF-295 CNS): 3610 nM
GI50 (COLO 205 colon): 18.3 nM
TGI (COLO 205 colon): 98.1 nM
GI50 (KM12 colon): 24.2 nM
TGI (KM12 colon): 1110 nM
GI50 (CAKI-1 renal): 328 nM
TGI (CAKI-1 renal): 5340 nM
GI50 (SNB-19 CNS): 192 nM
TGI (SNB-19 CNS): 1390 nM
GI50 (SNB-75 CNS): 101 nM
TGI (SNB-75 CNS): 226 nM
GI50 (RXF 393 renal): 112 nM
TGI (RXF 393 renal): 384 nM
GI50 (UO-31 renal): 5480 nM
TGI (UO-31 renal): 19100 nM
GI50 (EKVX NSCLC): 270 nM
TGI (EKVX NSCLC): 1930 nM
GI50 (NCI-H23 lung): 66.9 nM
TGI (NCI-H23 lung): 343 nM
GI50 (T-47D breast): 59.2 nM
TGI (T-47D breast): 270 nM
GI50 (UACC-257 melanoma): 139 nM
TGI (UACC-257 melanoma): 935 nM
GI50 (HOP-62 NSCLC): 161 nM
TGI (HOP-62 NSCLC): 1290 nM
GI50 (ACHN renal): 2370 nM
TGI (ACHN renal): 13200 nM
GI50 (BT-549 breast): 144 nM
TGI (BT-549 breast): 326 nM
GI50 (HCT-15 colon): 3960 nM
TGI (HCT-15 colon): 19800 nM
TGI (CCRF-CEM leukemia): 12.1 nM
GI50 (RPMI-8226 leukemia): 49.7 nM
TGI (RPMI-8226 leukemia): 226 nM
GI50 (OVCAR-8 ovarian): 309 nM
TGI (OVCAR-8 ovarian): 1490 nM
GI50 (NCI-H322M lung): 541 nM
TGI (NCI-H322M lung): 2440 nM
GI50 (SN12C renal): 51.5 nM
TGI (SN12C renal): 267 nM
GI50 (U251 glioblastoma): 202 nM
TGI (U251 glioblastoma): 902 nM
GI50 (NCI-H460 NSCLC): 36.2 nM
TGI (NCI-H460 NSCLC): 1080 nM
GI50 ([…]-0 renal): 1000 nM
TGI (786-0 renal): 2460 nM
GI50 (SK-MEL-5 melanoma): 264 nM
TGI (SK-MEL-5 melanoma): 1680 nM
GI50 (M14 melanoma): 437 nM
TGI (M14 melanoma): 2040 nM
GI50 (PC-3 prostate): 219 nM
TGI (PC-3 prostate): 2710 nM
GI50 (HL-60(TB) leukemia): 31.8 nM
TGI (HL-60(TB) leukemia): 126 nM
GI50 (SK-OV-3 ovarian): 135 nM
TGI (SK-OV-3 ovarian): 869 nM
GI50 (UACC-62 melanoma): 158 nM
TGI (UACC-62 melanoma): 1120 nM
GI50 (OVCAR-4 ovarian): 953 nM
TGI (OVCAR-4 ovarian): 5040 nM
GI50 (LOX IMVI melanoma): 84.9 nM
TGI (LOX IMVI melanoma): 229 nM
GI50 (IGROV1 ovarian): 40.8 nM
TGI (IGROV1 ovarian): 230 nM
GI50 (MCF7 breast): 12.6 nM
TGI (MCF7 breast): 2130 nM
